From patent US6110962A, “11-aryl-benzo[B]naphtho[2,3-D]furans and 11-aryl-benzo[B]naphtho[2,3-D]thiophenes useful in the treatment of insulin resistance and hyperglycemia” (American Home Products Corporation, priority 1999, dated 2000)
Read-outs that look alike come from different tables or passages of the source.

Columns and labels:
Human recombinant PTP1B = target: T1, Human recombinant PTP1B (Homo sapiens, UniProt P18031); type: biochemical
T1 construct: made in house
T1 sequence (P18031 1-435): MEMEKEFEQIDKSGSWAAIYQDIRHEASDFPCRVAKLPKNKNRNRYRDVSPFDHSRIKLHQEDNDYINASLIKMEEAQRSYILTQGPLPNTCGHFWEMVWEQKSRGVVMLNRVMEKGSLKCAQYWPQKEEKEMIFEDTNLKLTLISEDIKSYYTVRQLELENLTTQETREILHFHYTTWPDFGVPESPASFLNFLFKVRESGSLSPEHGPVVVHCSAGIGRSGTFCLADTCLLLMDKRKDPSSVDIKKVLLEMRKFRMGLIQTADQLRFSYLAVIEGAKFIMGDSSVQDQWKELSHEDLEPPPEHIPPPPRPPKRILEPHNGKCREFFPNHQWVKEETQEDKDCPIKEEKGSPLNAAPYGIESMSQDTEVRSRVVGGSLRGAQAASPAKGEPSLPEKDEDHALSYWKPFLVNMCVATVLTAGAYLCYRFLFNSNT

[1] = system: rat hepatic microsomal PTPases; settings: PTPase activity, compound at 50 μM

| IC50 (Human recombinant PTP1B; read-out: IC50) | % Change from Control [1] | SMILES | IC50 (Human recombinant PTP1B) |
| --- | --- | --- | --- |
| 207 nM | -92.46% | O=C(O)[C@@H](CCN1C(=O)c2ccccc2C1=O)Oc1ccc(-c2c3ccccc3c(Br)c3sc4ccccc4c23)cc1 [Example 150] |  |
| 103 nM | -104.68% | O=C(O)[C@H](Oc1c(Br)cc(-c2c3ccccc3c(Br)c3sc4ccccc4c23)cc1Br)c1ccccc1 [Example 142, (R)-[2,6-Dibromo-4-(6-bromo-benzo[b]naphtho[2,3-d]thiophen-11-yl)-phenoxy]-phenyl-acetic acid] |  |
| 85 nM | -70.01% | O=C(O)[C@@H](CCN1Cc2ccccc2C1=O)Oc1c(Br)cc(-c2c3ccccc3c(Br)c3sc4ccccc4c23)cc1Br [Example 124, (2R)-2-[2,6-Dibromo-4-(6-bromo-benzo[b]naphtho[2,3-d]thiophen-11-yl)-phenoxy]-4-(1-oxo-1,3-dihydro-isoindol-2-yl)-butyric acid] |  |
| 889 nM | -29.34% | COc1c(O)cc(-c2c3ccccc3c(Br)c3sc4ccccc4c23)cc1Br [Example 195, 3-Bromo-5-(6-bromo-benzo[b]naphtho[2,3-d]thiophen-11-yl)-2-methoxy-phenol] |  |
| 1130 nM | -85.24% | C[C@@H](Oc1cc(-c2c3ccccc3c(Br)c3sc4ccccc4c23)ccc1Br)C(=O)O [Example 144, (R)-2-[2-bromo-5-(6-Bromo-benzo[b]naphtho[2,3-d]thiophen-11-yl)-phenoxyl]-propionic acid] |  |
| 665 nM | -3.12% | NC(=O)COc1c(Br)cc(-c2c3ccccc3c(Br)c3sc4ccccc4c23)cc1Br [Example 165] |  |
| 607 nM | -18.79% | N#C[C@@H](Cc1ccccc1)Oc1c(Br)cc(-c2c3ccccc3c(Br)c3sc4ccccc4c23)cc1Br [Example 170, (R)-2-[2,6-Dibromo-4-(6-bromo-benzo[b]naphtho[2,3-d]thiophen-11-yl)-phenoxy]-3-phenyl-propionitrile] |  |
| 1170 nM | -76.98% | C[C@H](Oc1cc(-c2c3ccccc3c(Br)c3sc4ccccc4c23)ccc1Br)C(=O)O [Example 143, (S)-2-[2-Bromo-5-(6-bromo-benzo[b]naphtho[2,3-d]thiophen-11-yl)-phenoxyl]-propionic acid] |  |
| 129 nM | -25.07% | Oc1c(Br)cc(-c2c3ccccc3c(Cl)c3sc4ccccc4c23)cc1Br [Example 60, 2,6-Dibromo-4-(6-chloro-benzo[b]naphtho[2,3-d]thiophen-11-yl)-phenol] |  |
| 506 nM | -27.89% | CN(C)CCSc1c2ccccc2c(-c2cc(Br)c(O[C@H](Cc3ccccc3)C(=O)O)c(Br)c2)c2c1sc1ccccc12 [Example 133, (R)-2-{2,6-Dibromo-4-[6-(2-dimethylamino-ethylsulfanyl)-benzo[b]naphtho[2,3-d]thiophen-11-yl]-phenoxy}-3-phenyl-propionic acid] |  |
|  | -71.67% | O=C(O)COc1ccc(-c2c3ccccc3cc3sc4ccccc4c23)cc1I [Example 85, (4-Benzo[b]naphtho[2,3-d]thiophen-11-yl-2-iodo-phenoxy)-acetic acid] |  |
|  | -95.80% | O=C(O)COc1cc(-c2c3ccccc3c(Br)c3sc4ccccc4c23)cc(Br)c1OCC(=O)O [Example 94] |  |
|  | -69.35% | Cc1cc(-c2c3ccccc3c(C)c3sc4ccccc4c23)cc(C)c1OCC(=O)O [Example 86, {2,6-Dimethyl-4-[6-methyl-(benzo[b]naphtho[2,3-d]thiophen-11-yl)]-phenoxy}-acetic acid] |  |
|  | -98.45% | O=C(O)COc1c2ccccc2c(-c2cc(Br)c(O[C@H](Cc3ccccc3)C(=O)O)c(Br)c2)c2c1sc1ccccc12 [Example 185] |  |
|  | -54.82% | Oc1c(Br)cc(-c2c3ccccc3c(C(F)(F)F)c3sc4ccccc4c23)cc1Br [Example 61, 2,6-Dibromo-4-(6-trifluoromethyl-benzo[b]naphtho[2,3-d]thiophen-11-yl)-phenol] |  |
|  | -75.75% | O=C(O)COc1c(F)ccc(-c2c3ccccc3c(Br)c3sc4ccccc4c23)c1F [Example 201, [3-(6-Bromo-benzo[b]naphtho[2,3-d]thiophen-11-yl)-2.6-difluoro-phenoxy]-acetic acid] |  |
|  | -79.04% | O=C(O)COc1cccc(-c2c3ccccc3c(Br)c3sc4ccccc4c23)c1 [Example 90, [3-(6-Bromo-benzo[b]naphtho[2,3-d]thiophen-11-yl)-phenoxyl]-acetic acid] |  |
|  | -69.20% | O=C1NC(=O)C(Oc2c(Br)cc(-c3c4ccccc4c(Br)c4sc5ccccc5c34)cc2Br)S1 (centres unmarked) [Example 175, 5-[2,6-Dibromo-4-(6-bromo-benzo[b]naphtho[2,3-d]thiophen-11-yl)-phenoxy]-thiazolidinedione-2.4-dione] |  |
|  | -16.83% | COc1c(Br)cc(-c2c3ccccc3c(Br)c3sc4ccccc4c23)cc1Br [Example 22] |  |
|  | -67.03% | N#Cc1c2ccccc2c(-c2cc(Br)c(OCC(=O)O)c(Br)c2)c2c1sc1ccccc12 [Example 88] |  |
|  | -16.99% | O=C(NO)[C@@H](Cc1ccccc1)Oc1c(Br)cc(-c2c3ccccc3c(Br)c3sc4ccccc4c23)cc1Br [Example 167] |  |

More lines, now with the values behind:

| SMILES | IC50 (Human recombinant PTP1B; read-out: IC50) | % Change from Control [1] | IC50 (Human recombinant PTP1B) |
| --- | --- | --- | --- |
| O=P(O)(O)Oc1c(Br)cc(-c2c3ccccc3c(Br)c3sc4ccccc4c23)cc1Br [Example 177, Phosphoric acid Mono-[2,6-dibromo-4-(6-bromo-benzo[b]naphtho[2,3-d]thiophen-11-yl)-phenyl]ester] |  | -69.35% | 1080 nM |
| N#Cc1c2ccccc2c(-c2ccc(O[C@H](Cc3ccccc3)C(=O)O)cc2)c2c1sc1ccccc12 [Example 116, (R)-2-[4-(6-Cyano-benzo[b]naphtho[2,3-d]thiophen-11-yl)-phenoxy]-3-phenyl-propionic acid] | 765 nM | -61.89% |  |
| O=C(O)[C@@H](Cc1ccccc1)Oc1c(Br)cc(-c2c3ccccc3c(OCc3ccccc3)c3sc4ccccc4c23)cc1Br [Example 184, (R)-2-[4-(6-Benzyloxy-benzo[b]naphtho[2,3-d]thiophen-11-yl]-2-6-dibromo-phenoxy}-3-phenyl-propionic acid] | 45 nM | -46.44% |  |
| O=C(O)[C@@H](CCN1C(=O)c2ccccc2C1=O)Oc1ccc(-c2c3ccccc3cc3sc4ccccc4c23)cc1 [Example 148] | 1230 nM | -82.62% |  |
| Oc1ccc(-c2c3ccccc3cc3sc4ccccc4c23)cc1I [Example 27, 4-(Benzo[b]naphtho[2,3-d]thiophen-11-yl)-2-iodo-phenol] |  | -35.78% |  |
| Oc1c(Br)cc(-c2c3ccccc3c(Br)c3oc4ccccc4c23)c(O)c1Br [Example 211, 2,6-Dibromo-4-(6-bromo-benzo[b]naphtho[2,3-d]furan-11-yl)-3-hydroxy-phenol] |  | -36.82% |  |
| N#Cc1cc(-c2c3ccccc3cc3sc4ccccc4c23)cc(C#N)c1O [Example 32, 5-Benzo[b]naphtho[2,3-d]thiophen-11-yl-2-hydroxy-isophthalonitrile] |  | -58.12% |  |
| O=C(O)COc1ccc2c(c1)sc1cc3ccccc3c(-c3ccc(O[C@H](Cc4ccccc4)C(=O)O)cc3)c12 [Example 119] |  | -75.29% |  |
| Oc1c(I)cc(-c2c3ccccc3cc3sc4ccccc4c23)cc1I [Example 26, 4-(Benzo[b]naphtho[2,3-d]thiophen-11-yl)-2,6-diiodo-phenol] |  | -8.68% |  |
| Oc1c(-c2ccccc2)cc(-c2c3ccccc3cc3sc4ccccc4c23)cc1-c1ccccc1 [Example 190, 5'-Benzo[b]naphtho[2,3-d]thiophen-11-yl-[1,1':3', 1.increment.]terphenyl-2'-ol] | 2000 nM |  |  |
| O=C(O)COc1c(Br)cc(-c2c3ccccc3c(Br)c3oc4ccccc4c23)c(O)c1Br [Example 217] |  | -80.42% |  |
| O=C(O)COc1ccc(-c2c3ccccc3cc3sc4ccccc4c23)cc1 [Example 84, [4-Benzo[b]naphtho[2,3-d]thiophen-11-yl-phenoxy]-acetic acid] |  | -73.91% |  |
| COc1ccc(-c2c3ccccc3cc3sc4ccccc4c23)cc1 [Example 23, 11-(4-Methoxy-phenyl)-benzo[b]naphtho[2,3-d]thiophene] |  | -8.92% |  |
| COc1ccc(C(=O)c2c(Cc3ccccc3)sc3ccccc23)cc1 [Example 7, (2-Benzyl-benzo[b]thiophen-3-yl)-(4-methoxy-phenyl)-methanone] |  | 1.03% |  |
| O=C(O)COc1c(I)cc(-c2c3ccccc3cc3sc4ccccc4c23)cc1I [Example 83, (4-Benzo[b]naphtho[2,3-d]thiophen-11-yl-2,6-diiodo-phenoxy)-acetic acid] |  | -57.89% |  |
| COc1c(C#N)cc(-c2c3ccccc3cc3sc4ccccc4c23)cc1C#N [Example 30, 5-Benzo[b]naphtho[2,3-d]thiophen-11-yl-2-methoxy-isophthalonitrile] |  | 1.00% |  |
| COc1c(C)cc(-c2c3ccccc3c(C)c3sc4ccccc4c23)cc1C [Example 24, 11-(4-Methoxy-3,5-dimethyl-phenyl)-6-methyl-benzo[b]naphtho[2,3-d]thiophene] |  | 3.16% |  |
| Oc1ccc(-c2c3ccc(O)cc3cc3sc4ccccc4c23)cc1 [Example 20, 11-(4-Hydroxy-phenyl)-benzo[b]naphtho[2,3-d]thiophen-8-ol] |  | -26.86% |  |
